Measured values reported in patent US20250171715A1, “DETERGENT AND CLEANING AGENT CONTAINING ANTIMICROBIAL PEPTIDE” (HENKEL AG & CO. KGAA, priority 2023, published 2025).

Legend:
[1] = test system: Klebsiella pneumoniae ATCC 4352/K2510; assay type: cell-based; details: K. pneumoniae; 100 mg/L in water; positive control
Protocol: (§1) The antibacterial activity of the peptides shown in Table 2 was tested at a concentration of 5,000 mg/L in an MPN suspension test (MPN=Most Probable Number) on various microorganisms (Staphylococcus aureus ATCC 6538/[…], initial bacterial count 3.6E±0.6; Klebsiella pneumoniae ATCC 4352/[…], initial bacterial count 6.1E±06). The respective peptide solutions were dissolved in water (control), detergent without enzyme (A) and detergent with enzyme (B) at a concentration of 5,000 mg/L. The MPN suspension test was performed in deep-well microtiter plates (1,000 μl volume per well), each well containing 800 μl application concentration (AWK, prepared in distilled water) with a 1.25-fold concentration of the test substance (final concentration: 5,000 mg/L). In each case, 100 μl of the bacterial suspension was added (final concentration: 1.0E±08 CFU/ml). […] After at least 5 min and a maximum of 30 min inactivation, the number of living test germ cells was determined. […] For evaluation, the growth in the wells, indicated by turbidity of the nutrient broth, was determined visually or using the Tecan reader. The microbicidal activity was calculated using the following formula: RF=K/D or log 10K-log10D, where RF=reduction factor, K=number of CFU/ml without exposure to the product (water control) and D=number of CFU/ml after exposure to the product.

[2] = test system: Staphylococcus aureus ATCC 6538/K3212; assay type: cell-based; details: S. aureus; 100 mg/L in water; positive control
Protocol: as §1

Benzalkonium chloride
Log reduction, Water [1]: >4.40 | Log reduction, Water [2]: >4.65
